Data reported in US10681909B2, “Herbicidal triazoles” (FMC Corporation, priority 2014, dated 2020).

How the values were obtained:
[1] = test system: poinsettia, wild; assay: Test E postemergence; type: in vivo, Euphorbia heterophylla; settings: scale 0 to 100
Source text: Seeds of plant species selected from corn (Zea mays), soybean (Glycine max), lambsquarters (Chenopodium album), poinsettia, wild (wild poinsettia, Euphorbia heterophylla), pigweed, palmer (palmer pigweed, Amaranthus palmeri), waterhemp (common waterhemp, Amaranthus rudis), surinam grass (Brachiaria decumbens), crabgrass, large (large crabgrass, Digitaria sanguinalis), crabgrass, Brazilian (Brazilian crabgrass, Digitaria horizontalis), panicum, fall (fall panicum, Panicum dichotomiflorum), foxtail, giant (giant foxtail, Setaria faberii), foxtail, green (green foxtail, Setaria viridis), goosegrass (Eleusine indica), johnsongrass (Sorghum halepense), ragweed (common ragweed, Ambrosia elatior), barnyardgrass (Echinochloa crus-galli), sandbur (southern sandbur, Cenchrus echinatus), arrowleaf sida (Sida rhombifolia), ryegrass, Italian (Italian ryegrass, Lolium multiflorum), dayflower, VA (Virginia dayflower, Commelina virginica), field bindweed (Convolvulus arvensis), cocklebur (common cocklebur, Xanthium strumarium), morningglory (Ipomoea coccinea), nightshade (eastern black nightshade, Solanum ptycanthum), kochia (Kochia scoparia), nutsedge, yellow (yellow nutsedge, Cyperus esculentus), smartweed (ladysthumb smartweed, Polygonum persicaria), velvetleaf (Abutilon theophrasti), horseweed (Conyza canadensis), and beggarticks (hairy beggarticks, Bidens pilosa), were planted into a silt loam soil and treated preemergence with test chemicals formulated in a non-phytotoxic solvent mixture which included a surfactant.
At the same time, plants from these crop and weed species and also waterhemp_RES1, (ALS & Triazine resistant common waterhemp, Amaranthus rudis), and waterhemp_RES2, (ALS & HPPD resistant common waterhemp, Amaranthus rudis) were planted in pots containing Sunshine Redi-Earth® planting medium comprising spaghnum peat moss, vermiculite, starter nutrients and dolomitic limestone were treated with postemergence applications of test chemicals formulated in the same manner. Plants ranged in height from 2 to 18 cm for postemergence treatments (1- to 4-leaf stage). Treated plants and controls were maintained in a greenhouse for 14 to 21 d, after which time all species were compared to controls and visually evaluated. Plant response ratings, summarized in Table E, are based on a scale of 0 to 100 where 0 is no effect and 100 is complete control. A dash (-) response means no test result.

[2] = test system: sedge, umbrella; assay: Test C flooded paddy test; type: in vivo, Cyperus difformis; settings: Flood, applied to paddy water, rating after 13 to 15 d
Source text: (§1) At time of treatment, test pots were flooded to 3 cm above the soil surface, treated by application of test compounds directly to the paddy water, and then maintained at that water depth for the duration of the test. Treated plants and controls were maintained in a greenhouse for 13 to 15 d, after which time all species were compared to controls and visually evaluated. […] A dash (-) response means no test result.

[3] = test system: barnyardgrass; assay: Test C flooded paddy test; type: in vivo, Echinochloa crus-galli; settings: Flood, applied to paddy water, rating after 13 to 15 d
Source text: as §1

[4] = test system: rice; assay: Test C flooded paddy test; type: in vivo, Oryza sativa; settings: Flood, applied to paddy water, rating after 13 to 15 d
Source text: as §1

[5] = test system: ducksalad; assay: Test C flooded paddy test; type: in vivo, Heteranthera limosa; settings: Flood, applied to paddy water, rating after 13 to 15 d
Source text: as §1

Q: How did the Plant response rating ([1]; 16 g ai/ha) turn out when `CCc1nc(-c2ccc(C(F)(F)F)cc2)nn1Cc1ccnc(C(F)(F)F)c1` [Compound 1, 4-[[5-ethyl-3-[4-(trifluoromethyl)phenyl]-1H-1,2,4-triazol-1-yl]methyl]-2-(trifluoromethyl)pyridine] was run?
A: Its Plant response rating is 60.

Q: What about the Plant response rating ([1]; 31 g ai/ha) of the same compound?
A: Its Plant response rating is 70.

Q: What about the Plant response rating ([1]; 62 g ai/ha) of the same compound?
A: Its Plant response rating is 75.

Q: What about the Plant response rating ([1]; 125 g ai/ha) of the same compound?
A: The Plant response rating was 80.

Q: What about the Plant response rating ([1]; 250 g ai/ha) of the same compound?
A: The Plant response rating was 90.

Q: How did the “Sedge, Umbrella plant response rating (0 to 100)” value (“Sedge … (0 to 100)” for short) ([2]; 31 g ai/ha) turn out when `Cn1nc(-c2ccc(F)cc2)nc1Oc1cccc(C(F)(F)F)c1` [Compound 5, 3-(4-fluorophenyl)-1-methyl-5-[3-(trifluoromethyl)phenoxy]-1H-1,2,4-triazole] was run?
A: The value was 0.

Q: What about the “Sedge … (0 to 100)” value ([2]; 62 g ai/ha) of the same compound?
A: The value was 0.

Q: And the “Sedge … (0 to 100)” value ([2]; 125 g ai/ha)?
A: The value was 20.

Q: And the “Sedge … (0 to 100)” value ([2]; 250 g ai/ha)?
A: The value was 40.

Q: What about the “Barnyardgrass plant response rating (0 to 100)” value ([3]; 31 g ai/ha) of the same compound?
A: The value was 10.

Q: What about the “Barnyardgrass plant response rating (0 to 100)” value ([3]; 62 g ai/ha) of the same compound?
A: Its value is 10.

Q: What about the “Barnyardgrass plant response rating (0 to 100)” value ([3]; 125 g ai/ha) of the same compound?
A: Its value is 15.

Q: And the “Barnyardgrass plant response rating (0 to 100)” value ([3]; 250 g ai/ha)?
A: The value was 15.

Q: And the “Rice plant response rating (0 to 100)” value ([4]; 31 g ai/ha)?
A: The value was 0.

Q: What about the “Rice plant response rating (0 to 100)” value ([4]; 62 g ai/ha) of the same compound?
A: Its value is 0.

Q: What about the “Rice plant response rating (0 to 100)” value ([4]; 125 g ai/ha) of the same compound?
A: Its value is 0.

Q: What about the “Rice plant response rating (0 to 100)” value ([4]; 250 g ai/ha) of the same compound?
A: Its value is 0.

Q: And the “Ducksalad plant response rating (0 to 100)” value ([5]; 31 g ai/ha)?
A: The value was 20.

Q: And the “Ducksalad plant response rating (0 to 100)” value ([5]; 62 g ai/ha)?
A: Its value is 30.

Q: What about the “Ducksalad plant response rating (0 to 100)” value ([5]; 125 g ai/ha) of the same compound?
A: Its value is 40.

Q: What about the “Ducksalad plant response rating (0 to 100)” value ([5]; 250 g ai/ha) of the same compound?
A: The value was 60.
